From US20230348362A1, “LIPID COMPOUNDS AND LIPID NANOPARTICLE COMPOSITIONS” (Suzhou Abogen Biosciences Co., Ltd., priority 2021, published 2023)
Like-named read-outs stand apart in the source and are kept apart here.

Key:
[1] = Lipid nanoparticle size and polydispersity by dynamic light scattering; assay type: physicochemical; conditions: LNP of lipid/DSPC/cholesterol/PEG-lipid 50:10:38.5:1.5 encapsulating hEPO mRNA
Summary of the method: (§1)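 LNPs made from ionizable lipid/DSPC/cholesterol/PEG-lipid (50:10:38.5:1.5) and mRNA in citrate pH 4 by microfluidic mixing, lipid:mRNA about 10:1–30:1 w/w, then dialysed into DPBS and filtered. Size and PDI measured by DLS in backscatter mode; encapsulation efficiency measured by RiboGreen assay.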

[2] = Encapsulation efficiency of lipid nanoparticles, Quant-it Ribogreen RNA assay; assay type: physicochemical; conditions: LNP of lipid/DSPC/cholesterol/PEG-lipid 50:10:38.5:1.5 encapsulating hEPO mRNA
Summary of the method: as §1

[3] = Apparent pKa of LNP formulations, TNS fluorescence assay; assay type: physicochemical; conditions: LNP cationic lipid/DSPC/cholesterol/DMG-PEG 50/10/38.5/1.5 mol %
Summary of the method: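 LNPs (cationic lipid/DSPC/cholesterol/DMG-PEG 50/10/38.5/1.5 mol %) diluted to 0.1 mg/mL total lipid in citrate/phosphate/borate/NaCl buffers spanning pH 3–9 with TNS. Fluorescence (ex 325, em 435 nm) read at room temperature; pKa taken as the pH at half-maximal intensity from sigmoidal fit.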

[4] = Lipid clearance study: lipid remaining in liver tissue by LC-MS/MS; conditions: ICR female mice, 0.5 mg/kg i.v. bolus dose mRNA
Method: (§2) LNPs were injected into mice via the tail vein (ICR female, IV, 0.5 mg mRNA/kg), then mice were anesthetized under carbon dioxide at different time (e.g., 6 h, 24 h, and 48 h) after administration and sacrificed via cardiac puncture. Liver tissue were collected immediately, and then washed by ice-cold saline. Liver samples were weighed and homogenized in ice water bath by adding pre-chilled 20% methanol-water (v/v) at 2˜8° C. with the ratio of 1:5 (w/v). The homogenized tissue samples were stored in −90˜−60° C. freezer prior to analysis.
(§3) Sample Processing. All liver tissue homogenate samples were allowed to thaw at room temperature. An aliquot of 50 μL of sample was added with 50 μL MgCl2 (2M), then added with ACN which contains of Verapamil, 5 ng·mL^−1 and Glibenclamide, 50 ng·mL^−1 and Diclofenac, 200 ng·mL^1 and Tolbutamide, 200 ng·mL^1 for protein precipitation, then centrifuged at 13000 rpm for 8 min. Then 100 μL of supernatant was added with 100 μL water, then vortexed well. An aliquot of 5 μL of the mixture was injected into the LC-MS/MS system.

[5] = mouse, in vivo, iv, 0.5 mg/kg
Method: as §2, §3

Compound	polydispersity [1]	size (nm) [1]	Encapsulation Efficiency [2]	Apparent Pka [3]	% Dose Remaining in Liver Tissue ([4]; 6 h)	% Dose Remaining in Liver Tissue ([4]; 24 h)	% Dose Remaining in Liver Tissue ([4]; 48 h)	% Dose Remaining in Liver Tissue ([5]; 6 h)	% Dose Remaining in Liver Tissue ([5]; 24 h)	% Dose Remaining in Liver Tissue ([5]; 48 h)
CCCCCCCCCCCOC(=O)CCCCCN(CCN(CCO)CCCCCC(=O)OCC(CCCCCCCC)CCCCCCCC)C1CCCCC1 [Compound 21]	0.042	81.93 nm	92.3%	6.361	94.55%	67.66%	24.38%	–	–	–
CCCCCCCC(=O)OCC(CCCCN(CCO)CCN(CCCCC(COC(=O)CCCCCCC)COC(=O)CCCCCCC)C1CCC1)COC(=O)CCCCCCC [Compound 71]	0.091	65.56 nm	89.25%	6.489	1.34%	0.00%	0.00%	–	–	–
CCCCCCCCC(CCCCCCCC)CC(=O)NCCCCCN(CCN(CCO)CCCCCOC(=O)CC(CCCCCCCC)CCCCCCCC)C1CCCCCC1 [Compound 74]	0.05	67.96 nm	92.74%	–	48.44%	50.42%	50.83%	–	–	–
CCCCCCCCCCCOC(=O)CCCCCN(CCN(CCO)CCCCCOC(=O)N(CCCCCCCC)CCCCCCCC)C1CCCCC1 [Compound 99]	0.135	87.73 nm	83.64%	–	22.45%	16.39%	14.08%	–	–	–
CCCCCCCCC(CCCCCC)CNC(=O)CCCCCN(CCCCCO)CCN(CCCCC(COC(=O)CCCCCCC)COC(=O)CCCCCCC)C1CCCCC1 (centres unmarked) [Compound 209]	0.039	95.78 nm	87.79%	6.608	–	–	–	–	–	–
CCCCCCCCC(CCCCCC)CNC(=O)CCCCCN(CCCCCO)CCN(CCCCC(COC(=O)CCCCCCC)COC(=O)CCCCCCC)C1CCCCCCC1 (centres unmarked) [Compound 210]	0.06	79.56 nm	91.52%	6.49	–	–	–	–	–	–
CCCCCCCCC(CCCCCC)CNC(=O)CCCCN(CCO)CCN(CCCCC(COC(=O)CCCCCCC)COC(=O)CCCCCCC)C1CCCCCCC1 (centres unmarked) [Compound 214]	0.058	76.29 nm	89.14%	6.789	–	–	–	–	–	–
CCCCCCCCC(CCCCCC)CNC(=O)CCCCCCCN(CCO)CCN(CCCCC(COC(=O)CCCCCCC)COC(=O)CCCCCCC)C1CCCCCCC1 (centres unmarked) [Compound 215]	0.033	67.78 nm	90.80%	6.542	–	–	–	–	–	–
CCCCCCCCC(CCCCCCCC)CNC(=O)CCCCCN1CCC(N(CCO)CCCCC(COC(=O)CCCCCCC)COC(=O)CCCCCCC)CC1 [Compound 218]	0.043	82.04 nm	93.64%	–	7.38%	1.03%	0.17%	–	–	–
CCCCCCCC(=O)OCC(CCCCN(CCO)CCCCN(CCCCC(COC(=O)CCCCCCC)COC(=O)CCCCCCC)C1CCC1)COC(=O)CCCCCCC [Compound 219]	0.103	91.17 nm	94.13%	6.327	–	–	–	–	–	–
CCCCCCCCC(CCCCCCCC)COC(=O)CCCCCN(CCCCN(CCO)CCCCC(COC(=O)CCCCCCC)COC(=O)CCCCCCC)C1CCC1 [Compound 220]	0.15	94.56 nm	94.84%	–	7.87%	1.98%	0.52%	–	–	–

Next, values leading:

polydispersity [1]	size (nm) [1]	Encapsulation Efficiency [2]	Apparent Pka [3]	% Dose Remaining in Liver Tissue ([4]; 6 h)	% Dose Remaining in Liver Tissue ([4]; 24 h)	% Dose Remaining in Liver Tissue ([4]; 48 h)	% Dose Remaining in Liver Tissue ([5]; 6 h)	% Dose Remaining in Liver Tissue ([5]; 24 h)	% Dose Remaining in Liver Tissue ([5]; 48 h)	Compound
0.07	99.33 nm	93.71%	6.316	–	–	–	–	–	–	CCCCCCCCCCCOC(=O)CCCCCN(CCN(CCO)CCCCC(COC(=O)CCCCCCC)COC(=O)CCCCCCC)C1CCCCC1 [Compound 221]
0.043	70.98 nm	93.03%	6.395	–	–	–	–	–	–	CCCCCCCCOC(=O)C(CCCCN(CCN(CCO)CCCCCC(=O)OCC(CCCCCC)CCCCCCCC)C1CCC1)C(=O)OCCCCCCCC (centres unmarked) [Compound 223]
0.027	104.1 nm	85.65%	6.748	–	–	–	–	–	–	CCCCCCCCC(CCCCCC)CNC(=O)CCCCCN(CCCCCO)CCN(CCCCC(COC(=O)CCCCCCC)COC(=O)CCCCCCC)C1CCCC1 (centres unmarked) [Compound 224]
0.033	76.81 nm	92.20%	6.668	–	–	–	–	–	–	CCCCCCCCC(CCCCCC)CNC(=O)CCCCCN(CCCCCO)CCN(CCCCC(COC(=O)CCCCCCC)COC(=O)CCCCCCC)C1CCCCCC1 (centres unmarked) [Compound 225]
0.048	83.54 nm	91.70%	6.872	–	–	–	–	–	–	CCCCCCCCC(CCCCCC)CNC(=O)CCCCN(CCO)CCN(CCCCC(COC(=O)CCCCCCC)COC(=O)CCCCCCC)C1CCCC1 (centres unmarked) [Compound 227]
0.042	77.73 nm	92.04%	6.849	–	–	–	–	–	–	CCCCCCCCC(CCCCCC)CNC(=O)CCCCN(CCO)CCN(CCCCC(COC(=O)CCCCCCC)COC(=O)CCCCCCC)C1CCCCCC1 (centres unmarked) [Compound 229]
0.051	89.46 nm	89.65%	6.742	–	–	–	–	–	–	CCCCCCCCC(CCCCCC)CNC(=O)CCCCCCN(CCO)CCN(CCCCC(COC(=O)CCCCCCC)COC(=O)CCCCCCC)C1CCCC1 (centres unmarked) [Compound 230]
0.036	73.66 nm	92.25%	6.712	–	–	–	–	–	–	CCCCCCCCC(CCCCCC)CNC(=O)CCCCCCN(CCO)CCN(CCCCC(COC(=O)CCCCCCC)COC(=O)CCCCCCC)C1CCCCC1 (centres unmarked) [Compound 231]
0.031	77.78 nm	92.47%	6.567	–	–	–	–	–	–	CCCCCCCCC(CCCCCC)CNC(=O)CCCCCCN(CCO)CCN(CCCCC(COC(=O)CCCCCCC)COC(=O)CCCCCCC)C1CCCCCC1 (centres unmarked) [Compound 232]
0.052	76.91 nm	91.15%	6.463	–	–	–	–	–	–	CCCCCCCCC(CCCCCC)CNC(=O)CCCCCCN(CCO)CCN(CCCCC(COC(=O)CCCCCCC)COC(=O)CCCCCCC)C1CCCCCCC1 (centres unmarked) [Compound 233]
0.035	67.07 nm	88.68%	6.566	–	–	–	–	–	–	CCCCCCCCC(CCCCCC)CNC(=O)CCCCCCCN(CCO)CCN(CCCCC(COC(=O)CCCCCCC)COC(=O)CCCCCCC)C1CCCC1 (centres unmarked) [Compound 234]
0.093	67.92 nm	88.53%	6.545	–	–	–	–	–	–	CCCCCCCCC(CCCCCC)CNC(=O)CCCCCCCN(CCO)CCN(CCCCC(COC(=O)CCCCCCC)COC(=O)CCCCCCC)C1CCCCC1 (centres unmarked) [Compound 235]
0.066	82.86 nm	95.18%	6.552	–	–	–	–	–	–	CCCCCCCCC(CCCCCCCC)COC(=O)CCCCCN1CCC(N(CCO)CCCCC(COC(=O)CCCCCCC)COC(=O)CCCCCCC)CC1 [Compound 261]
–	–	–	–	–	–	–	69.39%	61.63%	52.47%	CCCCC/C=C\C/C=C\CCCCCCCCC(CCCCCCCC/C=C\C/C=C\CCCCC)OC(=O)CCCN(C)C [MC3, dilinoleylmethyl-4-dimethylaminobutyrate]
